Experimental data from US9637472B2, “Substituted 6,5-fused bicyclic heteroaryl compounds” (Epizyme, Inc., priority 2011, dated 2017).
Like-named read-outs stand apart in the source and are kept apart here.

Molecular target: EZH2 (Homo sapiens (Human), UniProt Q15910)
Test: PRC2 enzyme assay on peptide substrates
Assay type: biochemical
[1] = PRC2 enzyme assays on peptide substrates, 4 nM enzyme, 30 min preincubation at 25° C., read-out: EZH2 IC50

Sequence of EZH2 (Q15910 other isoform, or with tags, fused parts or gaps): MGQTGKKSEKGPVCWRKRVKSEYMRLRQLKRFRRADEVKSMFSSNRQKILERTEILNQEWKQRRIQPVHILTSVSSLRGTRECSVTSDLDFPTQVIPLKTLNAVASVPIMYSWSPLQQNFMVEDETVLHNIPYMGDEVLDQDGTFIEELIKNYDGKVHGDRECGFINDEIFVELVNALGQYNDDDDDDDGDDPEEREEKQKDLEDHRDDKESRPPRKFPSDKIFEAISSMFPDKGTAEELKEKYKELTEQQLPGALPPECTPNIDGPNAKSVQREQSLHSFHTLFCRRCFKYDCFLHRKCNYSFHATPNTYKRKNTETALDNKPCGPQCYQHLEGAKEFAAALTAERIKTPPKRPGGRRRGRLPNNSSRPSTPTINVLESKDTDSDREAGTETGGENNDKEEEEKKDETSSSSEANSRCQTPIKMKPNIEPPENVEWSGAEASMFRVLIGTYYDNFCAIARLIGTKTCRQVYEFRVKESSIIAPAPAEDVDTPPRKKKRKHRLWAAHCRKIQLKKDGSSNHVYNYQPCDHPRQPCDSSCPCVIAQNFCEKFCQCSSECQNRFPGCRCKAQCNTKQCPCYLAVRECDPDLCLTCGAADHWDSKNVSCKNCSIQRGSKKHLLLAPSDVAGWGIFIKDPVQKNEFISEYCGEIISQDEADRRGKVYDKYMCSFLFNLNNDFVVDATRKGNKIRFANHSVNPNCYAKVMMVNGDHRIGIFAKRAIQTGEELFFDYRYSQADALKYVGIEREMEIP
Sequence of EZH2 (O75530 whole entry partner): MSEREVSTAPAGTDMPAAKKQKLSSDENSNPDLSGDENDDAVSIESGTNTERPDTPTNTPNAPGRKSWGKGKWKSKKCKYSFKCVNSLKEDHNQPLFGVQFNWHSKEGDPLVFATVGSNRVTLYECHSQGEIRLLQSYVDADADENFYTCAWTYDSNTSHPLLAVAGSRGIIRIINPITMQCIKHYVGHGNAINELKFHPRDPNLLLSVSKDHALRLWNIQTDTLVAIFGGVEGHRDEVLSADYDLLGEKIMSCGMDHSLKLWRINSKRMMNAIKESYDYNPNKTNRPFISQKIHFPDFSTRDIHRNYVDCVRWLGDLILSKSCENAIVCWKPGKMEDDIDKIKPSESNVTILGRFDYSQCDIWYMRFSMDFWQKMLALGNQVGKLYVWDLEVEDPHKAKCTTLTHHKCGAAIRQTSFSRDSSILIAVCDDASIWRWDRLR
Sequence of EZH2 (Q15022 whole entry partner): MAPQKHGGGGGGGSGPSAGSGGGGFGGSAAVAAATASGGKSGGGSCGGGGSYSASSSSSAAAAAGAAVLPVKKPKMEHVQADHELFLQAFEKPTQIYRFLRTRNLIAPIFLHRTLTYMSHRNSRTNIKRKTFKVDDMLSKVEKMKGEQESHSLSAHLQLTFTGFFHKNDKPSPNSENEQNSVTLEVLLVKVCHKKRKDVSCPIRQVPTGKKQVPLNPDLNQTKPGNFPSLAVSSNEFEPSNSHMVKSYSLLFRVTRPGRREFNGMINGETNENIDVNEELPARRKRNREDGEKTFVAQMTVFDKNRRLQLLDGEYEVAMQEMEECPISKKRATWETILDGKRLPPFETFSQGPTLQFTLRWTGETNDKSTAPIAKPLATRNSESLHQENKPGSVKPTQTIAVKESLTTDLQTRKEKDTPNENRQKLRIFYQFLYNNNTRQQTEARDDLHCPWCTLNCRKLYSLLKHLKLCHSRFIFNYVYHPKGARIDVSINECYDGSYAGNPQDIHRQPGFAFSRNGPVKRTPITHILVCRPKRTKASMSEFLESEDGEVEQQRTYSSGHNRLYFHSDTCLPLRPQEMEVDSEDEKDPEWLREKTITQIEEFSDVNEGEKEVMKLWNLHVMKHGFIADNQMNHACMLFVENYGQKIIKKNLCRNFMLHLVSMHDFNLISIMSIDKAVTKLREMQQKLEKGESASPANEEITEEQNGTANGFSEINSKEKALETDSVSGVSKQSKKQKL
Sequence of EZH2 (Q09028 whole entry partner): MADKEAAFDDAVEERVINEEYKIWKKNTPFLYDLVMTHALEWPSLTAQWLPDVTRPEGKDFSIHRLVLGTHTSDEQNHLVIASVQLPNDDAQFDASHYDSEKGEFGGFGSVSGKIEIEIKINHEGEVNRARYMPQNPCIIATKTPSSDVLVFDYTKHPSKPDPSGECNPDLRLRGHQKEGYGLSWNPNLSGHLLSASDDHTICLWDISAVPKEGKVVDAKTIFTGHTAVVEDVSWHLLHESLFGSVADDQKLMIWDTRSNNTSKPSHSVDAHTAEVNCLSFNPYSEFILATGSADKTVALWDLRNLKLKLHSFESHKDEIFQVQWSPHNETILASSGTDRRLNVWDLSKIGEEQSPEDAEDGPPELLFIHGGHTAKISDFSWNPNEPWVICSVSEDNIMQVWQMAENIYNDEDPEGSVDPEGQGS

| Molecule | IC50 [1] | IC50 |
| --- | --- | --- |
| Cc1cc(C)c(CNC(=O)c2cc(N3CCC(N)CC3)nc3c2cnn3C(C)C)c(=O)[nH]1 [Compound B-110] | 1 to 3 µM | – |
| Cc1cc(C)c(CNC(=O)c2cc(C3=CC(C)(C)NC(C)(C)C3)nc3c2cnn3CCC#N)c(=O)[nH]1 [Compound B-144] | 3 to 10 µM | – |
| Cc1cc(C)c(CNC(=O)c2cc(N3CCC(N4CCN(C(=O)OC(C)(C)C)CC4)CC3)nc3c2cnn3C(C)C)c(=O)[nH]1 [Compound B-108] | 1 to 3 µM | – |
| Cc1cc(C)c(CNC(=O)c2cc(C3=CCN(C(=O)C(O)CN)CC3)nc3c2cnn3C(C)C)c(=O)[nH]1 (centres unmarked) [Compound B-70] | 0.3 to 1 µM | – |
| CNCC(=O)N1CCC(c2cc(C(=O)NCc3c(C)cc(C)[nH]c3=O)c3cnn(C(C)C)c3n2)CC1 [Compound B-76] | 0.3 to 1 µM | – |
| CC(=O)N1CCC(c2cc(C(=O)NCc3c(C)cc(C)[nH]c3=O)c3cnn(C(C)C)c3n2)CC1 [Compound B-78] | 0.3 to 1 µM | – |
| Cc1cc(C)c(CNC(=O)c2cc(Br)cc3c2cnn3C2CN(C(=O)OC(C)(C)C)C2)c(=O)[nH]1 [Compound D-34] | 1 to 3 µM | – |
| Cc1cc(C)c(CNC(=O)c2cc(C3CC(C)(C)NC(C)(C)C3)nc3c2cnn3C2COC2)c(=O)[nH]1 [Compound B-47] | 0.3 to 1 µM | – |
| Cc1cc(C)c(CNC(=O)c2cc(-c3ccccc3CNC(=O)OC(C)(C)C)nc3c2cnn3C(C)C)c(=O)[nH]1 [Compound A-98] | 10 to 50 µM | – |
| Cc1cc(C)c(CNC(=O)c2cc(C3CCN(C(=O)CO)CC3)nc3c2cnn3C(C)C)c(=O)[nH]1 [Compound B-85] | 0.3 to 1 µM | – |
| Cc1cc(C)c(CNC(=O)c2cc(C(O)CO)nc3c2cnn3C(C)C)c(=O)[nH]1 (centres unmarked) [Compound B-126] | 3 to 10 µM | – |
| Cc1cc(C)c(CNC(=O)c2cc(C3CCN(C)CC3)nc3c2cnn3C(C)C)c(=O)[nH]1 [Compound B-73] | 0.3 to 1 µM | – |
| Cc1cc(C)c(CNC(=O)c2cc(C3=CCN(C)CC3)nc3c2cnn3C(C)C)c(=O)[nH]1 [Compound B-75] | – | 0.3 to 1 µM |
| Cc1cc(C)c(CNC(=O)c2cc(C3=CCN(CCS(C)(=O)=O)CC3)nc3c2cnn3C(C)C)c(=O)[nH]1 [Compound B-89] | 1 to 3 µM | – |
| Cc1cc(CO)c(CNC(=O)c2cc(-c3ccc(CN4CCOCC4)cc3)nc3c2cnn3C(C)C)c(=O)[nH]1 [Compound A-96] | 3 to 10 µM | – |
| Cc1cc(C)c(CNC(=O)c2cc(C3=CC(C)(C)NC(C)(C)C3)nc3c2cnn3CC2CC2)c(=O)[nH]1 [Compound B-130] | 3 to 10 µM | – |
| Cc1cc(CN2CCCC2)c(CNC(=O)c2cccc3c2cnn3C2CCCC2)c(=O)[nH]1 [Compound D-82] | 3 to 10 µM | – |
| Cc1cc(C)c(CNC(=O)c2cc(-c3ccc(CN4CCOCC4)cc3)nc3c2c(Br)nn3C(C)C)c(=O)[nH]1 [Compound A-17, 3-bromo-N-((4,6-dimethyl-2-oxo-1,2-dihydropyridin-3-yl)methyl)-1-isopropyl-6-(4-(morpholinomethyl)phenyl)-1H-pyrazolo[3,4-b]pyridine-4-carboxamide] | < 0.3 µM | – |
| Cc1cc(C)c(CNC(=O)c2cc(-c3cccnc3N3CCNCC3)nc3c2cnn3C(C)C)c(=O)[nH]1 [Compound A-66] | 1 to 3 µM | – |
| CCc1cc(C(=O)NCc2c(C)cc(C)[nH]c2=O)c2cnn(C(C)C)c2n1 [Compound B-117] | 1 to 3 µM | – |
| Cc1cc(C)c(CNC(=O)c2cc(C3=CC(C)(C)NC(C)(C)C3)nc3c2cnn3C2COC2)c(=O)[nH]1 [Compound B-15, N-((4,6-dimethyl-2-oxo-1,2-dihydropyridin-3-yl)methyl)-1-(oxetan-3-yl)-6-(2,2,6,6-tetramethyl-1,2,3,6-tetrahydropyridin-4-yl)-1H-pyrazolo[3,4-b]pyridine-4-carboxamide] | 0.3 to 1 µM | – |
| Cc1ccc(CNC(=O)c2cc(-c3cccc(CN(C)CCN(C)C)c3)nc3c2cnn3C(C)C)c(=O)[nH]1 [Compound A-99] | 10 to 50 µM | – |
| Cc1cc(C)c(CNC(=O)c2cc(C3=CCN(C(=O)CO)CC3)nc3c2cnn3C(C)C)c(=O)[nH]1 [Compound B-82] | 0.3 to 1 µM | – |
| CNCc1cc(C)[nH]c(=O)c1CNC(=O)c1cccc2c1cnn2C1CCCC1 [Compound D-83] | 3 to 10 µM | – |
| Cc1cc(C)c(CNC(=O)c2cc(C3=CCN(C(=O)CN(C)C)CC3)nc3c2cnn3C(C)C)c(=O)[nH]1 [Compound B-53] | 0.3 to 1 µM | – |

| Molecule | IC50 [1] | IC50 |
| --- | --- | --- |
| Cc1cc(C)c(CNC(=O)c2cc(-c3ccc(CN(C)CCN)cc3)nc3c2cnn3C(C)C)c(=O)[nH]1 [Compound A-33] | 0.3 to 1 µM | – |
| CNCCCOc1ccc(-c2cc(C(=O)NCc3c(C)cc(C)[nH]c3=O)c3cnn(C4CCCC4)c3c2)cc1 [Compound C-12, 1-cyclopentyl-N-((4,6-dimethyl-2-oxo-1,2-dihydropyridin-3-yl)methyl)-6-(4-(3-(methylamino)propoxy)phenyl)-1H-indazole-4-carboxamide] | < 0.3 µM | – |
| CC(=O)N1CC=C(c2cc(C(=O)NCc3c(C)cc(C)[nH]c3=O)c3cnn(C(C)C)c3n2)CC1 [Compound B-64] | 0.3 to 1 µM | – |
| Cc1cc(C)c(CNC(=O)c2cc(COCCO)cc3c2cnn3C2CCCC2)c(=O)[nH]1 [Compound D-68] | 0.3 to 1 µM | – |
| CCC(=O)N1CCC(n2ncc3c(C(=O)NCc4c(C)cc(C)[nH]c4=O)cc(Br)cc32)CC1 [Compound D-55] | 0.3 to 1 µM | – |
| Cc1cc(C)c(CNC(=O)c2cc(C3CCN(C(=O)CN)CC3)nc3c2cnn3C(C)C)c(=O)[nH]1 [Compound B-79] | 0.3 to 1 µM | – |
| Cc1cc(C)c(CNC(=O)c2cc(-c3cnc(N)nc3)nc3c2cnn3C(C)C)c(=O)[nH]1 [Compound A-4, 6-(2-aminopyrimidin-5-yl)-N-((4,6-dimethyl-2-oxo-1,2-dihydropyridin-3-yl)methyl)-1-isopropyl-1H-pyrazolo[3,4-b]pyridine-4-carboxamide] | 0.3 to 1 µM | – |
| CNCCCOc1cccc(-c2cc(C(=O)NCc3c(C)cc(C)[nH]c3=O)c3cnn(C4CCCC4)c3c2)c1 [Compound C-10, 1-cyclopentyl-N-((4,6-dimethyl-2-oxo-1,2-dihydropyridin-3-yl)methyl)-6-(3-(3-(methylamino)propoxy)phenyl)-1H-indazole-4-carboxamide] | < 0.3 µM | – |
| CCOc1cc(C(=O)NCc2c(C)cc(C)[nH]c2=O)c2cnn(C(C)C)c2n1 [Compound B-112] | 1 to 3 µM | – |
| 1-cyclopentyl-N-((4,6-dimethyl-2-oxo-1,2-dihydropyridin-3-yl)methyl)-6-(2-ethoxy-4-((4-ethylpiperazin-1-yl)sulfonyl)phenyl)-1H-indazole-4-carboxamide [Compound C-14] | < 0.3 µM | – |
| Cc1cc(C)c(CNC(=O)c2cc(C3=CCN(C(=O)C4CCN(C)CC4)CC3)cc3c2cnn3C2CCCC2)c(=O)[nH]1 [Compound D-5, 1-cyclopentyl-N-((4,6-dimethyl-2-oxo-1,2-dihydropyridin-3-yl)methyl)-6-(1-(1-methylpiperidine-4-carbonyl)-1,2,3,6-tetrahydropyridin-4-yl)-1H-indazole-4-carboxamide] | < 0.3 µM | – |
| Cc1cc(C)c(CNC(=O)c2cc(-c3ccc(N)nc3)nc3c2cnn3C(C)C)c(=O)[nH]1 [Compound A-50] | 1 to 3 µM | – |
| Cc1cc(C)c(CNC(=O)c2cc(N3CCC(N4CCN(S(C)(=O)=O)CC4)CC3)nc3c2cnn3C(C)C)c(=O)[nH]1 [Compound B-101] | 1 to 3 µM | – |
| CC(=O)N1CCC(n2ncc3c(C(=O)NCc4c(C)cc(C)[nH]c4=O)cc(C4=CC(C)(C)NC(C)(C)C4)nc32)CC1 [Compound B-2, 1-(1-acetylpiperidin-4-yl)-N-((4,6-dimethyl-2-oxo-1,2-dihydropyridin-3-yl)methyl)-6-(2,2,6,6-tetramethyl-1,2,3,6-tetrahydropyridin-4-yl)-1H-pyrazolo[3,4-b]pyridine-4-carboxamide] | 0.3 to 1 µM | – |
| Cc1cc(C)c(CNC(=O)c2cc(C(=O)N3CCC(N4CCN(C)CC4)CC3)nc3c2cnn3C(C)C)c(=O)[nH]1 [Compound B-128] | 3 to 10 µM | – |
| Cc1cc(C)c(CNC(=O)c2cc(C3CCN(C(=O)C4CNC4)CC3)nc3c2cnn3C(C)C)c(=O)[nH]1 [Compound B-77] | 0.3 to 1 µM | – |
| Cc1cc(C)c(CNC(=O)c2cc(N)nc3c2cnn3C(C)C)c(=O)[nH]1 [Compound B-125] | 3 to 10 µM | – |
| Cc1cc(C)c(CNC(=O)c2cc(-c3cccc(C[N+](C)(C)CCO)c3)cc3c2cnn3C2CCCC2)c(=O)[nH]1 [Compound C-19] | < 0.3 µM | – |
| Cc1cc(C)c(CNC(=O)c2cc(Br)cc3c2cnn3C2CCN(C(=O)C(C)(C)C)CC2)c(=O)[nH]1 [Compound D-13] | < 0.3 µM | – |
| Cc1cc(C)c(CNC(=O)c2cc(Br)cc3c2cnn3C2CCN(C(=O)OC(C)(C)C)CC2)c(=O)[nH]1 [Compound D-12, tert-butyl 4-(6-bromo-4-(((4,6-dimethyl-2-oxo-1,2-dihydropyridin-3-yl)methyl)carbamoyl)-1H-indazol-1-yl)piperidine-1-carboxylate] | < 0.3 µM | – |
| 1-cyclopentyl-N-((4,6-dimethyl-2-oxo-1,2-dihydropyridin-3-yl)methyl)-6-(2,2,6,6-tetramethylpiperidin-4-yl)-1H-pyrazolo[3,4-b]pyridine-4-carboxamide [Compound B-4] | < 0.3 µM | – |
| Cc1cc(C)c(CNC(=O)c2cc(-c3ccc(CN4CCOCC4)cc3C)cc3c2cnn3C2CCCC2)c(=O)[nH]1 [Compound C-6, 1-cyclopentyl-N-((4,6-dimethyl-2-oxo-1,2-dihydropyridin-3-yl)methyl)-6-(2-methyl-4-(morpholinomethyl)phenyl)-1H-indazole-4-carboxamide] | < 0.3 µM | – |
| CNCCN1CC=C(c2cc(C(=O)NCc3c(C)cc(C)[nH]c3=O)c3cnn(C4CCCC4)c3c2)CC1 [Compound D-48] | < 0.3 µM | – |
| Cc1cc(C)c(CNC(=O)c2cc(C3=CCN(C(=O)CCN)CC3)nc3c2cnn3C(C)C)c(=O)[nH]1 [Compound B-49] | 0.3 to 1 µM | – |
| Cc1cc(C)c(CNC(=O)c2cc(C3=CC(C)(C)NC(C)(C)C3)nc3c2cnn3C2CCC2)c(=O)[nH]1 [Compound B-14, 1-cyclobutyl-N-((4,6-dimethyl-2-oxo-1,2-dihydropyridin-3-yl)methyl)-6-(2,2,6,6-tetramethyl-1,2,3,6-tetrahydropyridin-4-yl)-1H-pyrazolo[3,4-b]pyridine-4-carboxamide] | 0.3 to 1 µM | – |
